Laboratory results reported in patent US6645918B1, “N-([1,2,4]triazoloazinyl)thiophenesulfonamide compounds and their use as herbicides” (Dow AgroSciences LLC, priority 2000, dated 2003).

Columns and labels:
Format in all cases: in vivo
[1] = tested on: pigweed (Amaranthus retroflexus); experiment: Preemergence herbicidal activity, pigweed; conditions: soil spray, visual after 3 weeks, 0 no injury, 100 complete kill or no germination
Method in brief: (§1)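 Visual injury score (0% = none, 100% = complete kill or no germination) vs untreated controls at 3 weeks. Pre-emergence soil spray on seeded pots, max 4.48 kg/ha. Greenhouse: ~15 h photoperiod, day 23-29 °C, night 22-28 °C, top-irrigated.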

[2] = tested on: giant foxtail (Setaria faberi); experiment: Postemergence herbicidal activity, giant foxtail; conditions: foliar spray, visual after 2 weeks, 0 no injury, 100 complete kill
Method in brief: (§2)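 Postemergence foliar spray to pots at 1st–2nd true leaf, grown 7–21 d at ~23–29 °C day. Spray carrier: acetone/water/IPA/DMSO/crop oil/Triton X-155; 1 ppm ≈ 1 g/ha. Read-out: visual injury 0 (none) to 100% (complete kill), 2 wk.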

[3] = tested on: velvetleaf (Abutilion theophrasti); experiment: Preemergence herbicidal activity, velvetleaf; conditions: soil spray, visual after 3 weeks, 0 no injury, 100 complete kill or no germination
Method in brief: as §1

[4] = tested on: blackgrass (Alopecurus myosuroides); experiment: Postemergence herbicidal activity, blackgrass; conditions: foliar spray, visual after 2 weeks, 0 no injury, 100 complete kill
Method in brief: as §2

[5] = tested on: wild oats (Avena fatua); experiment: Preemergence herbicidal activity, wild oats; conditions: soil spray, visual after 3 weeks, 0 no injury, 100 complete kill or no germination
Method in brief: as §1

[6] = tested on: Rox orange sorghum (Sorghum bicolor); experiment: Postemergence herbicidal activity, Rox orange sorghum; conditions: foliar spray, visual after 2 weeks, 0 no injury, 100 complete kill
Method in brief: as §2

[7] = tested on: wild buckwheat (Polygonum convolvulus); experiment: Postemergence herbicidal activity, wild buckwheat; conditions: foliar spray, visual after 2 weeks, 0 no injury, 100 complete kill
Method in brief: as §2

[8] = tested on: cocklebur (Xanthium strumarium); experiment: Preemergence herbicidal activity, cocklebur; conditions: soil spray, visual after 3 weeks, 0 no injury, 100 complete kill or no germination
Method in brief: as §1

[9] = tested on: morningglory (Ipomoea hederacea); experiment: Postemergence herbicidal activity, morningglory; conditions: foliar spray, visual after 2 weeks, 0 no injury, 100 complete kill
Method in brief: as §2

[10] = tested on: Rox orange sorghum (Sorghum bicolor); experiment: Preemergence herbicidal activity, Rox orange sorghum; conditions: soil spray, visual after 3 weeks, 0 no injury, 100 complete kill or no germination
Method in brief: as §1

[11] = tested on: pigweed (Amaranthus retroflexus); experiment: Postemergence herbicidal activity, pigweed; conditions: foliar spray, visual after 2 weeks, 0 no injury, 100 complete kill
Method in brief: as §2

[12] = tested on: lambsquarters (Chenopodium album); experiment: Postemergence herbicidal activity, lambsquarters; conditions: foliar spray, visual after 2 weeks, 0 no injury, 100 complete kill
Method in brief: as §2

[13] = tested on: viola (Viola tricolor); experiment: Postemergence herbicidal activity, viola; conditions: foliar spray, visual after 2 weeks, 0 no injury, 100 complete kill
Method in brief: as §2

[14] = tested on: crabgrass (Digitaria sanguinalis); experiment: Preemergence herbicidal activity, crabgrass; conditions: soil spray, visual after 3 weeks, 0 no injury, 100 complete kill or no germination
Method in brief: as §1

[15] = tested on: wild poinsettia (Euphorbia heterophylla); experiment: Preemergence herbicidal activity, wild poinsettia; conditions: soil spray, visual after 3 weeks, 0 no injury, 100 complete kill or no germination
Method in brief: as §1

[16] = tested on: lambsquarters (Chenopodium album); experiment: Preemergence herbicidal activity, lambsquarters; conditions: soil spray, visual after 3 weeks, 0 no injury, 100 complete kill or no germination
Method in brief: as §1

[17] = tested on: velvetleaf (Abutilion theophrasti); experiment: Postemergence herbicidal activity, velvetleaf; conditions: foliar spray, visual after 2 weeks, 0 no injury, 100 complete kill
Method in brief: as §2

[18] = tested on: cocklebur (Xanthium strumarium); experiment: Postemergence herbicidal activity, cocklebur; conditions: foliar spray, visual after 2 weeks, 0 no injury, 100 complete kill
Method in brief: as §2

[19] = tested on: blackgrass (Alopecurus myosuroides); experiment: Preemergence herbicidal activity, blackgrass; conditions: soil spray, visual after 3 weeks, 0 no injury, 100 complete kill or no germination
Method in brief: as §1

[20] = tested on: barnyardgrass (Echinochloa crus-galli); experiment: Preemergence herbicidal activity, barnyardgrass; conditions: soil spray, visual after 3 weeks, 0 no injury, 100 complete kill or no germination
Method in brief: as §1

[21] = tested on: wild oats (Avena fatua); experiment: Postemergence herbicidal activity, wild oats; conditions: foliar spray, visual after 2 weeks, 0 no injury, 100 complete kill
Method in brief: as §2

[22] = tested on: chickweed (Stellaria media); experiment: Postemergence herbicidal activity, chickweed; conditions: foliar spray, visual after 2 weeks, 0 no injury, 100 complete kill
Method in brief: as §2

[23] = tested on: giant foxtail (Setaria faberi); experiment: Preemergence herbicidal activity, giant foxtail; conditions: soil spray, visual after 3 weeks, 0 no injury, 100 complete kill or no germination
Method in brief: as §1

[24] = tested on: morningglory (Ipomoea hederacea); experiment: Preemergence herbicidal activity, morningglory; conditions: soil spray, visual after 3 weeks, 0 no injury, 100 complete kill or no germination
Method in brief: as §1

COc1cscc1S(=O)(=O)Nc1nc2c(C)cnc(OC)n2n1 [Compound 17]
AMARE preemergence injury score 0-100 ([1]; 35 g/Ha): 70% | SETFA postemergence injury score 0-100 ([2]; 31.3 ppm): 90% | ABUTH preemergence injury score 0-100 ([3]; 35 g/Ha): 30% | ALOMY postemergence injury score 0-100 ([4]; 31.3 ppm): 70% | AVEFA preemergence injury score 0-100 ([5]; 35 g/Ha): 30% | SORBI postemergence injury score 0-100 ([6]; 31.3 ppm): 90% | POLCO postemergence injury score 0-100 ([7]; 31.3 ppm): 60% | XANST preemergence injury score 0-100 ([8]; 35 g/Ha): 70% | IPOHE postemergence injury score 0-100 ([9]; 31.3 ppm): 70% | SORBI preemergence injury score 0-100 ([10]; 35 g/Ha): 60% | AMARE postemergence injury score 0-100 ([11]; 31.3 ppm): 95% | CHEAL postemergence injury score 0-100 ([12]; 31.3 ppm): 100% | VIOTR postemergence injury score 0-100 ([13]; 31.3 ppm): 70% | DIGSA preemergence injury score 0-100 ([14]; 35 g/Ha): 30% | EPHHL preemergence injury score 0-100 ([15]; 35 g/Ha): 60% | CHEAL preemergence injury score 0-100 ([16]; 35 g/Ha): 100% | ABUTH postemergence injury score 0-100 ([17]; 31.3 ppm): 85% | XANST postemergence injury score 0-100 ([18]; 31.3 ppm): 95% | ALOMY preemergence injury score 0-100 ([19]; 35 g/Ha): 100% | ECHCG preemergence injury score 0-100 ([20]; 35 g/Ha): 30% | AVEFA postemergence injury score 0-100 ([21]; 31.3 ppm): 85% | STEME postemergence injury score 0-100 ([22]; 31.3 ppm): 90% | SETFA preemergence injury score 0-100 ([23]; 35 g/Ha): 60% | IPOHE preemergence injury score 0-100 ([24]; 35 g/Ha): 0%

COc1cc(OC)n2nc(NS(=O)(=O)c3c(OC)csc3Cl)nc2n1 [Compound 19]
AMARE preemergence injury score 0-100 ([1]; 8.8 g/Ha): 75% | SETFA postemergence injury score 0-100 ([2]; 15.6 ppm): 100% | ABUTH preemergence injury score 0-100 ([3]; 8.8 g/Ha): 95% | ALOMY postemergence injury score 0-100 ([4]; 15.6 ppm): 70% | AVEFA preemergence injury score 0-100 ([5]; 8.8 g/Ha): 100% | SORBI postemergence injury score 0-100 ([6]; 15.6 ppm): 100% | POLCO postemergence injury score 0-100 ([7]; 15.6 ppm): 95% | XANST preemergence injury score 0-100 ([8]; 8.8 g/Ha): 50% | IPOHE postemergence injury score 0-100 ([9]; 15.6 ppm): 80% | SORBI preemergence injury score 0-100 ([10]; 8.8 g/Ha): 95% | AMARE postemergence injury score 0-100 ([11]; 15.6 ppm): 100% | CHEAL postemergence injury score 0-100 ([12]; 15.6 ppm): 100% | VIOTR postemergence injury score 0-100 ([13]; 15.6 ppm): 100% | DIGSA preemergence injury score 0-100 ([14]; 8.8 g/Ha): 100% | EPHHL preemergence injury score 0-100 ([15]; 8.8 g/Ha): 90% | CHEAL preemergence injury score 0-100 ([16]; 8.8 g/Ha): 90% | ABUTH postemergence injury score 0-100 ([17]; 15.6 ppm): 80% | XANST postemergence injury score 0-100 ([18]; 15.6 ppm): 95% | ALOMY preemergence injury score 0-100 ([19]; 8.8 g/Ha): 95% | ECHCG preemergence injury score 0-100 ([20]; 8.8 g/Ha): 95% | AVEFA postemergence injury score 0-100 ([21]; 15.6 ppm): 100% | STEME postemergence injury score 0-100 ([22]; 15.6 ppm): 95% | SETFA preemergence injury score 0-100 ([23]; 8.8 g/Ha): 100% | IPOHE preemergence injury score 0-100 ([24]; 8.8 g/Ha): 90%

CCOc1cscc1S(=O)(=O)Nc1nc2nc(OC)cc(OC)n2n1 [Compound 12]
AMARE preemergence injury score 0-100 ([1]; 8.8 g/Ha): 100% | SETFA postemergence injury score 0-100 ([2]; 15.6 ppm): 95% | ABUTH preemergence injury score 0-100 ([3]; 8.8 g/Ha): 90% | ALOMY postemergence injury score 0-100 ([4]; 15.6 ppm): 60% | AVEFA preemergence injury score 0-100 ([5]; 8.8 g/Ha): 100% | SORBI postemergence injury score 0-100 ([6]; 15.6 ppm): 95% | POLCO postemergence injury score 0-100 ([7]; 15.6 ppm): 85% | XANST preemergence injury score 0-100 ([8]; 8.8 g/Ha): 90% | IPOHE postemergence injury score 0-100 ([9]; 15.6 ppm): 95% | SORBI preemergence injury score 0-100 ([10]; 8.8 g/Ha): 100% | AMARE postemergence injury score 0-100 ([11]; 15.6 ppm): 95% | CHEAL postemergence injury score 0-100 ([12]; 15.6 ppm): 90% | VIOTR postemergence injury score 0-100 ([13]; 15.6 ppm): 80% | DIGSA preemergence injury score 0-100 ([14]; 8.8 g/Ha): 100% | EPHHL preemergence injury score 0-100 ([15]; 8.8 g/Ha): 95% | CHEAL preemergence injury score 0-100 ([16]; 8.8 g/Ha): 100% | ABUTH postemergence injury score 0-100 ([17]; 15.6 ppm): 95% | XANST postemergence injury score 0-100 ([18]; 15.6 ppm): 90% | ALOMY preemergence injury score 0-100 ([19]; 8.8 g/Ha): 100% | ECHCG preemergence injury score 0-100 ([20]; 8.8 g/Ha): 100% | AVEFA postemergence injury score 0-100 ([21]; 15.6 ppm): 85% | STEME postemergence injury score 0-100 ([22]; 15.6 ppm): 95% | SETFA preemergence injury score 0-100 ([23]; 8.8 g/Ha): 100% | IPOHE preemergence injury score 0-100 ([24]; 8.8 g/Ha): 80%
